Paper PMC7919047, “Trichilianones A-D, Novel Cyclopropane-Type Limonoids from Trichilia adolfi” (Molecules, 2021)
Values after ≈ are worked out from the molar mass of the structure shown. Read-outs that look alike come from different tables or passages of the source.

Assays:
[1] = Cytotoxicity in Raw 264.7 murine macrophage cell cultures (resazurin, 72 h); format: cell-based; conditions: mouse, Raw 264.7 murine macrophages, 72 h at 37 °C, 6.2–200 μg/mL, triplicate
Protocol: The Raw 264.7 murine macrophage cell line was purchased from the American-Type Culture Collection (ATCC-TIB71). The cells were maintained in DMEM-HG medium supplemented with 10% fetal bovine serum, 100 U/mL of penicillin and 100 μg/mL of streptomycin, and sodium bicarbonate (2.2 g/L) in humidified atmosphere at 37 °C with 5% CO2. Samples were prepared as described above and added (in 100 μL DMSO) at different concentrations (6.2–200 μg/mL). Medium blank, control drugs and cell growth controls were included to evaluate cell viability. The plates were incubated for 72 h at 37 °C with 5% CO2. After incubation for the indicated time, the cells were washed, after which 10 μL of Resazurin reagent (2.0 mM) was added. They were further incubated at 37 °C for 3 h in a humidified incubator. The IC50 values were assessed using a fluorometric reader (540 nm excitation, 590 nm emission) and Gen5 software. All assays were performed in triplicate.

[2] = test system: L. braziliensis promastigotes; test: In vitro leishmanicidal activity against promastigotes (optical density, 72 h); format: cell-based; conditions: Leishmania braziliensis, read-out: Leishmanicidal activity L.b, IC50
Protocol: (§1) Leishmanicidal activity was assayed according to Williams, with some modification. Promastigotes of Leishmania: L. amazonensis, Clone 1, NHOM-BR-76-LTB-012 (Lma, donated by the Paul Sabatier Université, France) and L. braziliensis M2904 C192 RJA (M2904, donated by Dr. Jorge Arévalo from Universidad Peruana Cayetano Heredia, Peru). The strains were cultured in Schneider’s insect medium (pH 6.2), supplemented with 10% FBS and incubated in 96-microwell plates at 26 °C. Briefly, promastigotes in logarithmic phase of growth, at concentration of 106 parasites/mL, were exposed to samples dissolved in DMSO (1%) at different concentrations (3.1–100 μg/mL). Miltefosine (3.1–100 μg/mL, IDPS, France) was used as control drug. The microwell plates were incubated for 72 h at 26 °C, the optical density of each well was measured and the IC50 values calculated. All assays were performed in triplicate.

[3] = test system: Leishmania amazonensis promastigotes; test: as above; format: cell-based; conditions: read-out: Leishmanicidal activity L.a., IC50
Protocol: as §1

SMILES | melting point [°C] | IC50 at 72 h [1] [µg/mL] | IC50 ([2]; 72 h) [µg/mL] | IC50 ([3]; 72 h) [µg/mL] | IC50 at 72 h ([1]; Raw 264.7 macrophage cells) [µg/mL] | IC50 ([2]; L. braziliensis M2904 C192 RJA promastigotes, 72 h at 26 °C, 3.1–100 μg/mL, triplicate) [µg/mL] | IC50 ([3]; L. amazonensis Clone 1 NHOM-BR-76-LTB-012 promastigotes, 72 h at 26 °C, 3.1–100 μg/mL, triplicate) [µg/mL]
COC(=O)CC1C(C)(C)OC(=O)C=C2OC3(C)C45C(=O)CC(c6ccoc6)C4(C)C(OC(C)=O)C(O)C35C21C (stereo not shown) [Compound 1, Trichilianone A] | 181 | 64 ± 23 (≈ 118 µM) | > 100 | > 100 |  |  | 
COC(=O)CC1C(C)(C)OC(=O)CC2OC3(C)C45C(=O)CC(c6ccoc6)C4(C)C(OC(C)=O)C(O)C35C21C (stereo not shown) [Compound 2, Trichilianone B] | 145 |  | > 100 | > 100 | 75 ± 18 (≈ 138 µM) |  | 
COC(=O)CC1C(C)(C)OC(=O)CC2OC3(C)C45C(=O)CC(c6ccoc6)C4(C)C(OC(C)=O)C(OC(=O)C(C)C)C35C21C (stereo not shown) [Compound 3, Trichilianone C] | 151 |  | > 100 | > 100 | 70 ± 27 (≈ 114 µM) |  | 
COC(=O)CC1C(C)(C)OC(=O)C=C2OC3(C)C45C(=O)CC(C6=CCOC6=O)C4(C)C(OC(C)=O)C(O)C35C21C (stereo not shown) [Compound 4, Trichilianone D] | 175 | 76 ± 23 (≈ 136 µM) | > 100 | > 100 |  |  | 
CCCCCCCCCCCCCCCCOP(=O)([O-])OCC[N+](C)(C)C [Miltefosine, reference compound] |  |  |  |  | 21 ± 2 (≈ 51.5 µM) | 4.1 ± 0.5 (≈ 10.1 µM) | 5 ± 0.2 (≈ 12.3 µM)
